Values after ≈ are worked out from the molar mass of the structure shown.
Legend:
[1] = Solubility of the compound at pH 7; assay type: physicochemical; conditions: buffer
[2] = test system: A2780; test: cells; conditions: Homo sapiens, A2780, 72 h
[3] = target: Serine/threonine-protein kinase PLK3 (Homo sapiens, UniProt Q9H4B4); test: Inhibition of PLK3
[4] = target: Cyclin-dependent kinase 2/cyclin A (Homo sapiens, UniProt P24941); test: Inhibition of CDK2/Cyclin A; assay type: protein-complex assay
[5] = target: Serine/threonine-protein kinase PLK1 (Homo sapiens, UniProt P53350)
Sequence of Serine/threonine-protein kinase PLK1 (P53350 whole entry): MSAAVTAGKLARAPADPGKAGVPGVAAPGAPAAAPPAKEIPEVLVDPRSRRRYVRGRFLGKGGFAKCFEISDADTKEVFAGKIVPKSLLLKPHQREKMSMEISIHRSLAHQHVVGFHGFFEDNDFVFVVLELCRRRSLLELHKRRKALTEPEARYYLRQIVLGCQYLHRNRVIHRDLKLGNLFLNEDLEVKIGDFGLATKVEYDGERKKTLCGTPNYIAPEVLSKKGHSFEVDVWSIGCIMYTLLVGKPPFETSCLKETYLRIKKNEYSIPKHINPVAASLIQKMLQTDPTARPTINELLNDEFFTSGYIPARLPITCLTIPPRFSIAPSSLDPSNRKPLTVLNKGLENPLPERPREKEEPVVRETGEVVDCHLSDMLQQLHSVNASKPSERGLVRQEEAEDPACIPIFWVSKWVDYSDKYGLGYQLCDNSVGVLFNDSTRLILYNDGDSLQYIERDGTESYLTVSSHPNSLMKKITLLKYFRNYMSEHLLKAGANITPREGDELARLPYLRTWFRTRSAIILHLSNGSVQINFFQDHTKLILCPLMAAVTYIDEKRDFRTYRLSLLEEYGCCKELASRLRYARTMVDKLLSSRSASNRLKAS

[6] = target: Serine/threonine-protein kinase PLK2 (Homo sapiens, UniProt Q9NYY3); test: Inhibition of PLK2
Sequence of Serine/threonine-protein kinase PLK2 (Q9NYY3 whole entry): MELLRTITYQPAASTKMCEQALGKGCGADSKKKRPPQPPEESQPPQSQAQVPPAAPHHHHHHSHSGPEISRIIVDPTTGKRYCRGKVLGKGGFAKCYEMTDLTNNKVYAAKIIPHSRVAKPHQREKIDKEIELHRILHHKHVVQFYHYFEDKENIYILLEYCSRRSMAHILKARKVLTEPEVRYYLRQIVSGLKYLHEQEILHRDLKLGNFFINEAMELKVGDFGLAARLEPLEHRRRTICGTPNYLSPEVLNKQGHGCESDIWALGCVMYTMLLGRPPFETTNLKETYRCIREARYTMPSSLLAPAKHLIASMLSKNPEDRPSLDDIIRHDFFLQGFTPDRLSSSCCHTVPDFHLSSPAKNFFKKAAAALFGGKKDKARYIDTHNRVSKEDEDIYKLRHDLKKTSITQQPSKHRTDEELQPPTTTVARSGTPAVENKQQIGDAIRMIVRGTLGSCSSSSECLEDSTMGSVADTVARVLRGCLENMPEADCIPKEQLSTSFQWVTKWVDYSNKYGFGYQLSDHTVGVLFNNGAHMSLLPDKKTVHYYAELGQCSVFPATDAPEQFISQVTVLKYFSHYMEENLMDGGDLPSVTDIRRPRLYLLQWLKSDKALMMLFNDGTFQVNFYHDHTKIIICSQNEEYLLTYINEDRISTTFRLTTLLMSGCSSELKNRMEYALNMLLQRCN

[7] = Intrinsic clearance in human liver microsomes; assay type: ADME, Microsome
[8] = Solubility of the compound at 105 Tween 80; assay type: physicochemical
[9] = Permeability of the compound by PAMPA; assay type: ADME
[10] = target: T1, Receptor-type tyrosine-protein kinase FLT3 (Homo sapiens, UniProt P36888); test: Inhibition of FLT3
T1 sequence (P36888 whole entry): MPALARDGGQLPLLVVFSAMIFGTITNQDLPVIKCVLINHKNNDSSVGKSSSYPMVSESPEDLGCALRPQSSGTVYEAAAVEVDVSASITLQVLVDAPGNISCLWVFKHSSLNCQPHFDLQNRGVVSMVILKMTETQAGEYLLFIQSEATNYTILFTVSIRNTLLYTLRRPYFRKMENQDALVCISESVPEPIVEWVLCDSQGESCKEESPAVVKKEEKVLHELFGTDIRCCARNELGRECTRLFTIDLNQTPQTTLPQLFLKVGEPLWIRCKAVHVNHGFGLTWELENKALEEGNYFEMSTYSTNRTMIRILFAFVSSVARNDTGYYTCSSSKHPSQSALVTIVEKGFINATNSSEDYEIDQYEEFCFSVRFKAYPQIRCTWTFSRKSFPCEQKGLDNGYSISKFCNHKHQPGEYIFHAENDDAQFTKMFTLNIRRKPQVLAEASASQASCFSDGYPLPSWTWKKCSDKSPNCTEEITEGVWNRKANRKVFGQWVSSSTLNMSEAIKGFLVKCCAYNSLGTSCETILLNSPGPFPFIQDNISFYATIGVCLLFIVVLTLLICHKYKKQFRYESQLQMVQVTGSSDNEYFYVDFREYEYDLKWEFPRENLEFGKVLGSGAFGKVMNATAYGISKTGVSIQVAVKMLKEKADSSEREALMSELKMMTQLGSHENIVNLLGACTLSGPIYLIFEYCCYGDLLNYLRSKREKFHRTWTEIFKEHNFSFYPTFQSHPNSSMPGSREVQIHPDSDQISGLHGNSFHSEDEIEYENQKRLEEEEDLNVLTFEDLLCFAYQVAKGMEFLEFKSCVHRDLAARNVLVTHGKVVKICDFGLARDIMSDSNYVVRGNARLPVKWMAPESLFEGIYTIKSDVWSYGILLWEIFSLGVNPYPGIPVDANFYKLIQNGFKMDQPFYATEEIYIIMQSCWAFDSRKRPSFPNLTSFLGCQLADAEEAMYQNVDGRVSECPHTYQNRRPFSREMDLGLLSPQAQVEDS

[11] = target: Serine/threonine-protein kinase Nek6 (Homo sapiens, UniProt Q9HC98); test: Inhibition of NEK6
Sequence of Serine/threonine-protein kinase Nek6 (Q9HC98 whole entry): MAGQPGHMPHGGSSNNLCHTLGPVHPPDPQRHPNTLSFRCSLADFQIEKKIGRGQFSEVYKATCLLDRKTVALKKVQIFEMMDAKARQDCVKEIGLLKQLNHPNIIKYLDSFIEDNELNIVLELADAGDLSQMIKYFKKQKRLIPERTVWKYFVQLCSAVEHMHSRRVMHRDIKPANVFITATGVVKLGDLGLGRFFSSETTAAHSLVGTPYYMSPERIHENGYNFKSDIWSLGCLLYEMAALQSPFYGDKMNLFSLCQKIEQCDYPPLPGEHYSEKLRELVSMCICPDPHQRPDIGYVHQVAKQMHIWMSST

[12] = Inhibition of casein kinase 2
[13] = Inhibition of PDGFR
[14] = target: ALK tyrosine kinase receptor (Homo sapiens, UniProt Q9UM73); test: Inhibition of ALK
Sequence of ALK tyrosine kinase receptor (Q9UM73 whole entry): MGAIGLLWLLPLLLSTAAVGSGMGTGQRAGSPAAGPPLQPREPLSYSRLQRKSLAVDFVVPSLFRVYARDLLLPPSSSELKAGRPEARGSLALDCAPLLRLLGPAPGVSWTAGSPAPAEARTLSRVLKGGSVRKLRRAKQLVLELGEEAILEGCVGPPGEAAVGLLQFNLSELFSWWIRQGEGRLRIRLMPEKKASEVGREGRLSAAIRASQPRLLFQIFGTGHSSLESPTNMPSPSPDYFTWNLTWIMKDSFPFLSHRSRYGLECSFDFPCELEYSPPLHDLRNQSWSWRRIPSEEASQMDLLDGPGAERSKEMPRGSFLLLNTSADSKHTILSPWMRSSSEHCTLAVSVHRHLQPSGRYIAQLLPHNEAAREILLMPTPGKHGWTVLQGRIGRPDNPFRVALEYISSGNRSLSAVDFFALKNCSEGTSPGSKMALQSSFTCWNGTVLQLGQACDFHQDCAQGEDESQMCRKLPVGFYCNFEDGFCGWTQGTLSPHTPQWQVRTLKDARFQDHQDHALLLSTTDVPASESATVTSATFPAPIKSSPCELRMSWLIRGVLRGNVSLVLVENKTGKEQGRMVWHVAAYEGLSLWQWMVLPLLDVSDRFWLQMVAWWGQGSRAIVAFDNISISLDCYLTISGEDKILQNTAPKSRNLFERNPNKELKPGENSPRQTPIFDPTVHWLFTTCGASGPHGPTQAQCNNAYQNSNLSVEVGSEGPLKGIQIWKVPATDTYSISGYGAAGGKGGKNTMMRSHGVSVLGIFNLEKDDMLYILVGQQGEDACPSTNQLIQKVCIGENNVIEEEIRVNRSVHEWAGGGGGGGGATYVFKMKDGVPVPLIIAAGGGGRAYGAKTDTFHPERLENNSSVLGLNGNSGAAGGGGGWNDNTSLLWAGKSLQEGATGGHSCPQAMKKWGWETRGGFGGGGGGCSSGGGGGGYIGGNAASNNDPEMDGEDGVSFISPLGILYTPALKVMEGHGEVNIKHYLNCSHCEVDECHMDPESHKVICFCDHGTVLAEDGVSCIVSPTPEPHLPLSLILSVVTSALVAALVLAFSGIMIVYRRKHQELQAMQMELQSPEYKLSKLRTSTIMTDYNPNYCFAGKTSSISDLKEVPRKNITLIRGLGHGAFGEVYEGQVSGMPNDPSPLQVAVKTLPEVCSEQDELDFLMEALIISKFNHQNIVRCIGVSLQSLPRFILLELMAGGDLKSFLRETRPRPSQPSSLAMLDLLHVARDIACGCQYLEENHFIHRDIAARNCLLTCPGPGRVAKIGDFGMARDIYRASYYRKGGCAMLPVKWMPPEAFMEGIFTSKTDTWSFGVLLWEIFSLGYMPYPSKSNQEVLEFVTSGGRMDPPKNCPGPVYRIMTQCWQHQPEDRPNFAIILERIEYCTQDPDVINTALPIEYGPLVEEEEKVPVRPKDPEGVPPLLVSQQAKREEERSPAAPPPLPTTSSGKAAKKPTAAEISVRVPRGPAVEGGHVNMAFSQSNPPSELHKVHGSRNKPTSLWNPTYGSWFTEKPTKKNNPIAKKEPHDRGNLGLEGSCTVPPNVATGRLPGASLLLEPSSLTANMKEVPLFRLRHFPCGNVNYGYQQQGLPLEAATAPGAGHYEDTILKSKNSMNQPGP

[15] = AUC (0 to infinity) in CD1 mouse at 10 mg/kg, po administered as single dose by LC/MS/MS analysis; assay type: ADME, organism-based; design: time infinity, dose 10 mg/kg, route oral; conditions: plasma
[16] = Terminal half life in CD1 mouse at 10 mg/kg, po administered as single dose by LC/MS/MS analysis; assay type: ADME, organism-based; design: dose 10 mg/kg, route oral; conditions: in vivo, read-out: beta t1/2 (converted)
[17] = AUC (0 to infinity) in CD1 mouse at 10 mg/kg, iv administered as single dose by LC/MS/MS analysis; assay type: ADME, organism-based; design: time infinity, dose 10 mg/kg, route intravenous; conditions: plasma
[18] = Terminal half life in CD1 mouse at 10 mg/kg, iv administered as single dose by LC/MS/MS analysis; assay type: ADME, organism-based; design: dose 10 mg/kg, route intravenous; conditions: in vivo, read-out: beta t1/2 (converted)
[19] = Cmax in CD1 mouse at 10 mg/kg, po administered as single dose by LC/MS/MS analysis; assay type: ADME, organism-based; design: dose 10 mg/kg, route oral; conditions: in vivo
[20] = Clearance in CD1 mouse at 10 mg/kg, iv administered as single dose by LC/MS/MS analysis; assay type: ADME, organism-based; design: dose 10 mg/kg, route intravenous; conditions: in vivo
[21] = Volume of distribution at steady state in CD1 mouse at 10 mg/kg, iv administered as single dose by LC/MS/MS analysis; assay type: ADME, organism-based; design: dose 10 mg/kg, route intravenous; conditions: in vivo, read-out: Vdss
[22] = Oral bioavailability in CD1 mouse at 10 mg/kg administered as single dose by LC/MS/MS analysis; assay type: ADME, organism-based; conditions: in vivo

Sequence of Serine/threonine-protein kinase PLK3 (Q9H4B4 whole entry): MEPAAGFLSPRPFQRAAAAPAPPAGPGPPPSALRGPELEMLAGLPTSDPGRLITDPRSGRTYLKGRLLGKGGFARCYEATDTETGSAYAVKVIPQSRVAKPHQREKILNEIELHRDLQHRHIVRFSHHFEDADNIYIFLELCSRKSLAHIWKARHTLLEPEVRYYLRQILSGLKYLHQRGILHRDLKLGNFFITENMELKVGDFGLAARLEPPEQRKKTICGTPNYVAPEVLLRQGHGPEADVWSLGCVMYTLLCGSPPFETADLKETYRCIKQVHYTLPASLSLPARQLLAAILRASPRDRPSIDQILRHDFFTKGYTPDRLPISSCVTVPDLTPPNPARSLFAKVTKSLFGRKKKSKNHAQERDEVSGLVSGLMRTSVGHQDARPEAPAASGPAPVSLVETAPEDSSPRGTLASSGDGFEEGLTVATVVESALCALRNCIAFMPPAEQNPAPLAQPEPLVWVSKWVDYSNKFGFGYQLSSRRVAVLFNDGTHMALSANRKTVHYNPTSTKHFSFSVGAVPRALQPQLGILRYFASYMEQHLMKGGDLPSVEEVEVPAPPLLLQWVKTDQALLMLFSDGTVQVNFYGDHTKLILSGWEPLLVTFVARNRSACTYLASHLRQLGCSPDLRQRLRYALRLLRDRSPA

Row | solubility [1] [µM] | IC50 [2] [µM] | IC50 [3] [µM] | IC50 [4] [µM] | IC50 [5] [µM] | IC50 [6] [µM] | SMILES | further results
1 | < 1 | 6.41 | 0.032 | 1.76 | 0.117 | 0.206 | Cn1nc(C(N)=O)c2c1-c1nc(Nc3ccccc3OC(F)(F)F)ncc1CC2 | –
2 | > 225 | 1.09 | – | 1.02 | – | 3.42 | CN1CCC(Nc2ccc(OC(F)(F)F)c(Nc3ncc4c(n3)-c3c(c(C(N)=O)nn3C)CC4)c2)CC1 | –
3 | 12 (≈ 5.86 µg/mL) | 0.093 | > 10 | > 10 | 0.004 | > 10 | CN1CCN(c2ccc(OC(F)(F)F)c(Nc3ncc4c(n3)-c3[nH]nc(C(N)=O)c3CC4)c2)CC1 | –
4 | 136 (≈ 74.3 µg/mL) | 0.075 | > 10 | > 10 | 0.015 | > 10 | COCCn1nc(C(N)=O)c2c1-c1nc(Nc3cc(N4CCN(C)CC4)ccc3OC(F)(F)F)ncc1CC2 | –
5 | < 1 | 2.1 | – | > 10 | > 10 | – | CN1CCN(c2ccc(OC(F)(F)F)c(Nc3ncc4c(n3)-c3c(c(C(N)=O)nn3C(c3ccccc3)(c3ccccc3)c3ccccc3)CC4)c2)CC1 | –
6 | 147 (≈ 84.2 µg/mL) | 1.75 | > 10 | 3.02 | 0.964 | > 10 | CN1C(C)(C)CC(Nc2ccc(OC(F)(F)F)c(Nc3ncc4c(n3)-c3c(c(C(N)=O)nn3C)CC4)c2)CC1(C)C | –
7 | 31 (≈ 13 µg/mL) | 1.07 | – | 1.18 | – | 1.28 | Cn1nc(C(N)=O)c2c1-c1nc(Nc3cc(N)ccc3OC(F)(F)F)ncc1CC2 | –
8 | 157 (≈ 83.3 µg/mL) | 2.56 | – | 0.969 | – | 0.429 | CN1CCCC1CCNc1ccc(OC(F)(F)F)c(Nc2ncc3c(n2)-c2c(c(C(N)=O)nn2C)CC3)c1 (stereo not drawn) | –
9 | 9 (≈ 4.96 µg/mL) | 0.031 | > 10 | 2.01 | – | > 10 | CN1CCN(c2ccc(OC(F)(F)F)c(Nc3ncc4c(n3)-c3c(c(C(N)=O)nn3CCCl)CC4)c2)CC1 | –
10 | 114 (≈ 55.7 µg/mL) | 0.03 | 1.43 | > 10 | – | > 10 | Cn1nc(C(N)=O)c2c1-c1nc(Nc3cc(N4CCNCC4)ccc3OC(F)(F)F)ncc1CC2 | CLint scaled [7]: 6.9 mL/min/kg; solubility [8]: 1100 µg/mL (≈ 2.25 mM); Papp [9]: 7.22 ×10⁻⁶ cm/s; IC50 [10]: 0.194 µM; IC50 [11]: 0.595 µM; IC50 [12]: 0.059 µM; IC50 [13]: > 10 µM; IC50 [14]: > 10 µM
11 | > 225 | 0.782 | – | > 10 | – | > 10 | Cn1nc(C(N)=O)c2c1-c1nc(Nc3cc(N4CC[N+](C)([O-])CC4)ccc3OC(F)(F)F)ncc1CC2 | –
12 | 48 (≈ 25.7 µg/mL) | > 10 | > 10 | > 10 | 2.68 | > 10 | Cn1nc(C(N)=O)c2c1-c1nc(Nc3cc([N+]4([O-])CC[N+](C)([O-])CC4)ccc3OC(F)(F)F)ncc1CC2 (stereo not drawn) | –
13 | – | 1.29 | – | 1.13 | – | 0.768 | Cn1nc(C(N)=O)c2c1-c1nc(Nc3cc(N4CCN(C(=O)OC(C)(C)C)CC4)ccc3OC(F)(F)F)ncc1CC2 | –
14 | 95 (≈ 49.1 µg/mL) | 0.941 | > 10 | > 10 | 0.025 | > 10 | CN1CCCN(c2ccc(OC(F)(F)F)c(Nc3ncc4c(n3)-c3c(c(C(N)=O)nn3C)CC4)c2)CC1 | –
15 | 171 (≈ 83.5 µg/mL) | 2.22 | – | 0.414 | – | 0.762 | Cn1nc(C(N)=O)c2c1-c1nc(Nc3cc(NC4CCNC4)ccc3OC(F)(F)F)ncc1CC2 (stereo not drawn) | –
16 | 33 (≈ 17 µg/mL) | 0.034 | – | > 10 | – | 3.39 | CCN1CCN(c2ccc(OC(F)(F)F)c(Nc3ncc4c(n3)-c3c(c(C(N)=O)nn3C)CC4)c2)CC1 | –
17 | 85 (≈ 51.1 µg/mL) | 0.538 | – | 0.622 | – | 0.19 | Cn1nc(C(N)=O)c2c1-c1nc(Nc3cc(N4CCN(C(=O)N5CCNCC5)CC4)ccc3OC(F)(F)F)ncc1CC2 | –
18 | 133 (≈ 74 µg/mL) | 0.583 | > 10 | > 10 | 0.033 | > 10 | Cn1nc(C(N)=O)c2c1-c1nc(Nc3cc(N4CCC(N5CCCC5)CC4)ccc3OC(F)(F)F)ncc1CC2 | –
19 | 8 (≈ 4.12 µg/mL) | 0.008 | 0.182 | > 10 | – | 0.335 | C=Cn1nc(C(N)=O)c2c1-c1nc(Nc3cc(N4CCN(C)CC4)ccc3OC(F)(F)F)ncc1CC2 | AUC(0-inf) [15]: 2.15 µM·h; CLint scaled [7]: 28.8 mL/min/kg; half-life [16]: 155 min; solubility [8]: > 3200 µg/mL; Papp [9]: 19.6 ×10⁻⁶ cm/s; AUC(0-inf) [17]: 5.37 µM·h; half-life [18]: 53.4 min; Cmax [19]: 610 nM; IC50 [10]: 0.226 µM; IC50 [11]: 0.336 µM; IC50 [12]: 0.069 µM; clearance [20]: 57.3 mL/min/kg; IC50 [13]: 1.46 µM; Vd [21]: 2.58 L/kg; bioavailability [22]: 29%; IC50 [14]: 2.38 µM
20 | 21 (≈ 10.8 µg/mL) | 0.011 | > 10 | > 10 | 0.006 | > 10 | CCn1nc(C(N)=O)c2c1-c1nc(Nc3cc(N4CCN(C)CC4)ccc3OC(F)(F)F)ncc1CC2 | –
21 | 18 (≈ 9.62 µg/mL) | 0.014 | > 10 | > 10 | 0.004 | > 10 | CN1CCN(c2ccc(OC(F)(F)F)c(Nc3ncc4c(n3)-c3c(c(C(N)=O)nn3CCF)CC4)c2)CC1 | AUC(0-inf) [15]: 0.192 µM·h; CLint scaled [7]: 56.1 mL/min/kg; solubility [8]: 2100 µg/mL (≈ 3.93 mM); Papp [9]: 50 ×10⁻⁶ cm/s; AUC(0-inf) [17]: 10.2 µM·h; half-life [18]: 44.4 min; Cmax [19]: 260 nM; IC50 [10]: 0.216 µM; IC50 [11]: > 10 µM; IC50 [12]: 0.134 µM; clearance [20]: 40.3 mL/min/kg; IC50 [13]: > 10 µM; Vd [21]: 1.53 L/kg; bioavailability [22]: 2%; IC50 [14]: > 10 µM

Reference: ChEMBL document CHEMBL1268971, “4,5-Dihydro-1H-pyrazolo[4,3-h]quinazolines as potent and selective Polo-like kinase 1 (PLK1) inhibitors” (Bioorg Med Chem Lett, 2010)
